Measured values from patent US20230219898A1, “COMPOUNDS AND METHODS FOR BLOCKING APOPTOSIS AND INDUCING AUTOPHAGY” (President and Fellows of Harvard College, priority 2020, published 2023).

Legend:
[1] = test system: TRADD-N mutants (Y16A, F18A, I72A, R119A, G121A); assay: Thermal shift assay with His-TRADD-N mutants; format: binding, human
Experimental: To determine stability, purified proteins were made to a final concentration of […]. SYPRO Orange dye was added to the protein to make a final concentration of 2×. Compounds were added in the mix with a final concentration of 250 μM or as indicated and incubated at 4C for 1 h. The experiments were performed in 384-well plates specific for real-time PCR instrument with a total volume of 20 μl/well. The assay plate was covered with a sheet of optically clear adhesive to seal each well. The assay plate was centrifuged at 800×g for 2 min at 25C to collect solutions in the bottom of the well and remove bubbles. The assay plate was placed into the Applied Biosystems QuantStudio 6 Real-Time PCR System. The reaction was run from 25C, ramping up in increments of 0.05° C./s to a final temperature of 95C with fluorescence detection throughout the experiment to generate a dataset. Melting temperature of the protein (Tm) was determined by performing non-linear fitting of the dataset to a Boltzmann Sigmoidal curve in GraphPad Prism with the following equation: Y=Bottom+(Top-Bottom)/[1+exp(Tm-X/Slope)], where Y=fluorescence emission in arbitrary units; X=temperature; Bottom=baseline fluorescence at low temperature; Top=maximal fluorescence at top of the dataset; Slope=describes the steepness of the curve, with larger values denoting shallower curves.

TRADD-N and TRAF2-C [2] = target: T1, TRADD-N and TRAF2-C (Homo sapiens, UniProt Q15628); assay: Cell-free FRET assay TRADD-N / TRAF2-C; format: biochemical; conditions: incubated 1 h
T1 construct: expression constructs encoding Flag-TRADD-N(1-179) and HA-TRADD-C(180-312); expressed in transfected cells; host or cells: HEK293T
Experimental: When FRET occurs, the acceptor mVenus-TRADDN-Flag (mV-TRADDN) emission will increase and the donor emission will decrease. Apt-1 was added to the system with indicated concentration and incubated for 1 h, then subjected to FRET assay.
mVenus- and Flag-tagged TRADD-N(mVenus-TRADDN-Flag) and mCerulean- and Flag-tagged TRAF2C (Flag-TRAF2C-mCerulean) was expressed in HEK293T cells for 48 h. Then cells were lysed in NP-40 buffer followed by immunoprecipitation using anti-Flag affinity gel. The proteins were eluted by 5 mg/ml 3×Flag peptide and exchanged into assay buffer (120 mM NaCl, 20 mM NaH2PO4/Na2HPO4, pH 7.4) by dialysis for FRET assay. The proteins were added into Coming black 96-well microtiter plates in triplicates at a final concentration of 1 μM. Apt-1 was incubated with the proteins for 1 h before measurement. Measurements were performed on a fluorescent plate reader (Victor3, 1420 Multilabel counter, Perkin Elmer). The following filter set was used: mCerulean filter set (excitation: 430/15 nm, emission: 460/20 nm); mVenus filter set (excitation: 485/15, emission 535/15); FRET filter set (430/15 nm, emission 450-600 nm).

[3] = test system: Htt-103Q, α-synuclein and tau expressing cells; assay: Misfolded protein accumulation and cell death in cell models (Htt-103Q, α-synuclein, tau); format: cell-based; conditions: 10 μM
Experimental: Nuclei were labeled with DAPI. The amount of Htt-Q103-EGFP aggregates per mm^2 was quantified using ImageJ. Scale bar is 100 μm. Cell viability was measured by CellTiter-Glo assay. Survival rate is compared with vehicle-treated cells. Mean ±s.d. from technical triplicates (n=3), representative of 3 independent experiments. One-way ANOVA, post hoc Dunnett's tests. ***P<0.001; n.s. not significant, (P=0.8556, 0.9195, 0.8613, 0.5687, 0.5304, 0.9998, 0.6029, 0.2821 (left to right)).
RFP-α-Synuclein was quantified by Fluorescence/Cell (RLU) by ImageJ.
Mean ±s.d. from technical triplicates (n=3), representative of 3 independent experiments. Two-way ANOVA, post hoc Bonferroni's tests. ***P<0.001; *P=0.0262, 0.0367 (left to right).
Mean ±s.d. from technical triplicates (n=3), representative of 3 independent experiments. Two-way ANOVA, post hoc Bonferroni's tests.

TRADD-N and TRAF2-C [4] = target: T1, TRADD-N and TRAF2-C; assay: NanoBiT protein-protein interaction assay TRADD-N / TRAF2-C; format: cell-based
Experimental: Mean ±s.d. from quadruplicates (n=4).
The Nano-Glo Live Cell assay kit (Promega) was used as follows: HEK293T cells were seeded at 7.5×10^3 cells per well in a white, clear-bottom 96-well plate 12 h before transfection (10 ng LgBiT-fused construct and 10 ng SmBiT-fused construct). After 24 h incubation, medium was removed and replaced with 100 μl Opti-MEM medium for 1 h at 37C. The Nano-Glo reagent was prepared as per manufacturer's instructions and added to each well immediately before the luminescence reading was taken. Luminescence was measured at 1 min intervals for 10 min on a plate reader and reported as relative light units (RLU). For quantitative comparison of LgBiT-SmBiT interactions, the peak values at the 2-3 min time point were used. Concentration of compounds used in NanoBiT assay: 10 μM (Apt-1, ICCB-19 or ICCB-19i).

panel of 97 kinases = assay: KINOMEscan profiling; format: binding; conditions: 10 μM
Experimental: FIG. 5d depicts the KINOMEscan profiling of Apt-1 (10 μM) against a panel of 97 kinases. Binding interactions reported as % Ctrl, where lower numbers indicate stronger hits. Negative control=DMSO (100% Ctrl); positive control=control compound (0% Ctrl); 0<% Ctrl <0.1 Very Strong; 0.1≤% Ctrl <1 Strong; 1≤% Ctrl <10 Medium; […] Weak; % Ctrl ≥35 No effects. No significant binding of Apt-1 to this panel of 97 kinases was detected. CellTiter-Glo was used to determine cell survival in (a), (b), and (c).
KINOMEscan profiling was used to assess the interaction of Apt-1 with a panel of 97 kinases as a custom service (DiscoverX/Eurofins, San Diego, Calif. USA). Briefly, DNA-tagged recombinant kinases were produced in E. coli. The assay plates with kinases were incubated at room temperature with shaking for 1 h and the affinity beads were washed with wash buffer (1×PBS, 0.05% Tween 20). The beads were then re-suspended in elution buffer. The kinase concentration in the eluates was measured by qPCR. Apt-1 were screened at […], and the results for primary screen binding interactions are reported as % Ctrl, where lower numbers indicate stronger hits in the matrix.

T1 sequence (Q15628 1-179): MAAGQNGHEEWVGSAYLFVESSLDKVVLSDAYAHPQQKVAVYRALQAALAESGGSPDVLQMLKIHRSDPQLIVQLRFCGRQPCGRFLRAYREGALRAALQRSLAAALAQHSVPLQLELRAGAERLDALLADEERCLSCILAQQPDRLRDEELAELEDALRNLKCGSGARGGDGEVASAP

Row | Structure (SMILES) | binding with recombinant TRADD-N mutants [1] | binding of TRADD-N to TRAF2-C (FRET) (TRADD-N and TRAF2-C [2]) | protein accumulation and cell death with Htt-103Q, α-synuclein, tau [3] | direct binding of TRADD-N and TRAF2 (NanoBiT) (TRADD-N and TRAF2-C [4]) | off-target effects on 97 kinase targets (panel of 97 kinases)
1 | CN1CCN=C1SC(C(=O)NC1CCCCCC1)c1ccccc1 (stereo not drawn) [Compound 30] | reduced relative to WT | dose-dependently reduced | reduced protein accumulation and cell death | dose-dependently reduced | no significant off-target effects
2 | O=C(CSC1=NCCN1)NC1CCCCCC1 [ICCB-19] |  |  | reduced protein accumulation and cell death |  | 
